Test results taken from US10073103B1, “Rapid measurement of total vitamin D in blood” (Theranos, Inc., priority 2013, dated 2018).
Read-outs that look alike come from different tables or passages of the source.

Assays:
[1] = tested on: antivitamin-D coated microparticles; design: concentration or dose not given beside the values; conditions: as stated in the manufacturer's product insert; cited from earlier work
[2] = tested on: antibody to 25-hydroxy vitamin D; conditions: as stated in the manufacturer's product insert; cited from earlier work
[3] = as stated in the manufacturer's product insert; cited from earlier work
[4] = tested on: anti-25-hydroxy vitamin D antibodies (Ab5H10 and Ab2F4); test: Cross-reactivity test of the present competitive chemiluminescent ELISA in low BSA buffer; type: binding, sheep; conditions: for Cross reactivity as potentially interfering compound (in words): final assay conditions
Method: The liquid phase of the assay reaction included the sample (mixed with the sample diluent) and included the anti-vitamin-D antibodies and the alkaline phosphatase (AP) conjugate. As discussed below, in many cases mixtures of two types of anti-vitamin D antibodies were used. For example, in many cases, the anti-vitamin-D antibodies Ab5H10 and Ab2F4 were mixed into the diluted sample (final concentrations 10 ng/mL Ab5H10 and 5 ng/mL Ab2F4), and then the AP conjugate was mixed into the solution that included the sample, the sample diluent, and the anti-vitamin-D antibodies. This liquid mixture was incubated with the capture surface (anti-sheep antibody bound to UltraAvidin™-coated polystyrene).
Vitamin D assay methods using pepsin degradation of vitamin D binding proteins at low pH were then further optimized in subsequent experiments, including experiments performed at an operating temperature of 34° C. […] This sample treatment and assay protocol consisted of a 1:5 dilution of the sample into 10 mg/mL pepsin in 100 mM citrate buffer pH 2.6, followed by a 1:8 dilution into 50 mM TRIS pH 8.0 which brought the pH of the diluted sample to 8.0 and neutralized the pepsin. Then the sheep anti-25-hydroxy vitamin D antibody was added and incubated with the sample for 10 minutes. Following addition of the anti-25-hydroxy vitamin D antibody, the 25-hydroxy vitamin D-AP conjugate was added, resulting in a final sample dilution of 1:50. The mixture was then incubated on the anti-sheep capture surface for 5 minutes, followed by a wash and 5 minute substrate incubation.
1. Sample was diluted 1:5 into 100 mM Citrate buffer pH 2.6 containing 10 mg/mL pepsin and mixed (final pH 3.9) for 5 minutes at 34° C.
2. Treated sample was diluted a further 1:8 into 50 mM TRIS buffer pH 8.0 to permanently deactivate the pepsin, and anti-25-hydroxy vitamin D antibody in a blocking buffer was spiked in and mixed. This mixture was incubated for 10 minutes.
3. The AP-labeled 25-hydroxy vitamin D was added to the sample mixture and then transferred to the capture surface (biotinylated anti-sheep secondary antibody bound to UltraAvidin™-coated polystyrene) and incubated for 5 minutes.
4. The surface was washed six times (1 minute for each wash cycle) with 0.05% Tween20® in 50 mM TBS containing 0.05% sodium azide at pH8.0.
5. The washed capture surface was exposed to enzyme substrate for five minutes and the chemiluminescence was read in an automated luminometer.
Tests were performed in order to determine whether non-target compounds could interfere with the assay results. Such tests, termed “cross-reactivity tests”, measured the change in measured 25-hydroxy vitamin D due to the presence of a non-target substance by comparing the value of 25-hydroxy vitamin D measured by the present methods where a potentially interfering compound was in the sample, as compared to the value of 25-hydroxy vitamin D measured by the present methods in the absence of the potentially interfering compound. Cross reactivity testing was conducted using the final assay conditions in a low BSA buffer matrix (0.03% BSA in TBS). Cross-reactivity was reported in these assays as % recovery=100×([measured vitamin D])/([nominal vitamin D]); [measured vitamin D] is the 25-hydroxy vitamin D concentration measured in the presence of the potentially interfering compound, and [nominal vitamin D] is the 25-hydroxy vitamin D concentration measured in the absence of the potentially interfering compound. […] (Note that an interfering compound would displace labeled 25-hydroxy vitamin D in the competition assays disclosed herein, so that the interfering compound would cause an apparent (erroneous) increase in the measured 25-hydroxy vitamin D.) For comparison, values for 25-hydroxy vitamin D3 (a direct target of the assay, and not a cross-reactant) are presented in the table.

[5] = as stated in the manufacturer's product insert, b197 cites literature, cited from earlier work
[6] = Reagent stability: lyophilized pepsin versus frozen aliquots, compared by vitamin D results on clinical samples; conditions: 10 mg/mL, reconstituted with 100 mM citrate buffer pH 2.6
Method: The stability of pepsin in frozen aliquots of aqueous pepsin solution and of dry, lyophilized pepsin (e.g., a lyophilized powder formed from an aqueous pepsin solution) was measured. Pepsin was lyophilized in containers suitable for use when reconstituted, e.g., in an automated assay device. The pepsin was provided in a solution at a concentration of 10 mg/mL and was lyophilized into the containers to obtain the final reconstituted amount and concentration equal to the concentration and amounts used in the assay methods disclosed herein. The containers of lyophilized reagent were placed into cartridges (arrays including several such containers) and the reagent was reconstituted with 100 mM citrate buffer (pH 2.6). Clinical samples were used for comparison, and the vitamin D results were calculated for both conditions based on the standard curve obtained for frozen pepsin/buffer aliquots.

[7] = test substance 50 ng/mL, OORL = out of range - low, below the detection limit
[8] = test substance 50 ng/mL, low BSA buffer
[9] = test substance 100 ng/mL, OORL = out of range - low, below the detection limit
[10] = test substance 100 ng/mL, low BSA buffer
[11] = test substance 150 ng/mL, OORL = out of range - low, below the detection limit
[12] = test substance 150 ng/mL, low BSA buffer (0.03% BSA in TBS)

Row | Compound | Vitamin D metabolite cross reactivity, DiaSorin Liaison 25 OH Vitamin D TOTAL [1] [%] | Vitamin D metabolite cross reactivity, DiaSorin 25-Hydroxyvitamin D 125I RIA [2] [%] | Vitamin D metabolite cross reactivity, Roche Vitamin D3 (25-OH) [3] | Vitamin D metabolite cross reactivity, Present Methods [4] [%] | Cross reactivity as potentially interfering compound (in words) ([4]; low BSA buffer) | Conc., ng/mL Mean (measured 25-hydroxy vitamin D) [4, 7] | Signal, RLU Mean [4, 8] [RLU] | Conc., ng/mL Mean (measured 25-hydroxy vitamin D) [4, 9] | Signal, RLU Mean [4, 10] [RLU] | Conc., ng/mL Mean (measured 25-hydroxy vitamin D) [4, 11] | Signal, RLU Mean [4, 12] [RLU] | Vitamin D metabolite cross reactivity, IDS ELISA kit [5] [%] | other results
1 | C=C1/C(=C\C=C2/CCC[C@]3(C)[C@@H]([C@H](C)/C=C/[C@H](C)C(C)(C)O)CC[C@@H]23)C[C@@H](O)C[C@@H]1O [1.25(OH)2 D2, 1,25-dihydroxy vitamin D2] | 40 | 11 |  |  |  |  |  |  |  |  |  |  | 
2 | C=C1/C(=C\C=C2/CCC[C@]3(C)[C@@H]([C@H](C)CCCC(C)(C)O)CC[C@@H]23)C[C@@H](O)C[C@@H]1O [1α,25-Dihydroxy Vitamin D3, 1α,25-dihydroxy vitamin D3] | 17 | 11 | up to 100% | 70 | Some cross reactivity | 36.5 ng/mL | 7804 | 60.6 ng/mL | 3642 | 107.1 ng/mL | 2352 |  | % Recovery ([4]; test substance 50 ng/mL): 73%; % Recovery ([4]; test substance 100 ng/mL): 61%; % Recovery ([4]; test substance 150 ng/mL): 71%
3 | C=C1CCC(O)C/C1=C\C=C1\CCCC2(C)C1CCC2C(C)CCC(O)C(C)(C)O (stereo not drawn) [24,25-Dihydroxy Vitamin D3, 24,25-dihydroxy vitamin D3] |  |  |  |  | No cross reactivity | OORL | 25059 | OORL | 23735 | OORL | 22992 | >100 | 
4 | C=C1CC[C@H](O)C/C1=C/C=C1\CCC[C@]2(C)[C@@H]([C@H](C)/C=C/[C@H](C)C(C)(C)O)CC[C@@H]12 [25(OH) D2, 25-hydroxy vitamin D2] | 104 | 100 | <10% | 110 |  |  |  |  |  |  |  | 75 | Vitamin D metabolite cross reactivity, IDS ELISA kit ([5]; listed as 25-hydroxy Vitamin D2): 75%
5 | C=C1CC[C@H](O)C/C1=C/C=C1\CCC[C@]2(C)[C@@H]([C@H](C)CCCC(C)(C)O)CC[C@@H]12 [25-Hydroxy vitamin D3, 25-hydroxy vitamin D3] | 100 | 100 | 100% | 100 |  | 55.5 ng/mL | 4044 | 76.5 ng/mL | 2941 | 104.5 ng/mL | 2432 | 100 | % Recovery ([4]; test substance 10 ng/mL): 110%; Conc., ng/mL Mean (measured 25-hydroxy vitamin D) ([4]; test substance 10 ng/mL): 11.0 ng/mL; Signal, RLU Mean ([4]; test substance 10 ng/mL, low BSA buffer): 20071 RLU; % Recovery ([4]; test substance 25 ng/mL): 83%; Conc., ng/mL Mean (measured 25-hydroxy vitamin D) ([4]; test substance 25 ng/mL): 20.8 ng/mL; Signal, RLU Mean ([4]; test substance 25 ng/mL, low BSA buffer): 14076 RLU; % Recovery ([4]; test substance 50 ng/mL): 111%; % Recovery ([4]; test substance 100 ng/mL): 77%; % Recovery ([4]; test substance 150 ng/mL): 70%
6 | C=C1CC[C@H](O)C/C1=C/C=C1\CCC[C@]2(C)[C@@H]([C@H](C)CCCC(C)C)CC[C@@H]12 [Cholecalciferol (Vitamin D3), cholecalciferol] | <1 | 0.8 | <1% | <0.01 | No cross reactivity | OORL | 31046 | OORL | 30864 | OORL | 31607 | <0.01 | 
7 | C=C1CC[C@H](O)C/C1=C/C=C1\CCC[C@]2(C)[C@@H]([C@H](C)/C=C/[C@H](C)C(C)C)CC[C@@H]12 [Ergocalciferol (Vitamin D2), ergocalciferol] | <1 | 0.8 | <1% | <0.01 | No cross reactivity | OORL | 30040 | OORL | 27040 | OORL | 30935 | <0.3 | 
8 | pepsin: porcine gastric mucosa pepsin (Sigma catalog # P7000) |  |  |  |  |  |  |  |  |  |  |  |  | Stability: results with lyophilized reagent versus (thawed) frozen aliquot [6]: no significant differences
